Measured values reported in paper PMC6261607, “Novel high–throughput myofibroblast assays identify agonists with therapeutic potential in pulmonary fibrosis that act via EP2 and EP4 receptors” (PLoS ONE, 2018).
Where a name gives a salt, the structure may show the parent alone. Read-outs that look alike come from different tables or passages of the source.

Assays:
[1] = system: NHLF cells; assay: RealTime–Glo MT viability assay
Procedure: The effect of compounds on cell viability was assessed by quantifying the relative metabolic activity of cells using the non–lytic luminescence–based RealTime–Glo™ MT cell viability assay (Promega) according to the manufacturer’s instructions.

[2] = system: normal human lung fibroblasts (NHLF); assay: Phenotypic high-content assay (HCA) of TGF–β1–induced fibroblast–to–myofibroblast differentiation; format: cell-based; settings: for IC50: NHLF, 5 ng/ml TGF–β1 for 48 h, compound added with TGF–β1, mean ± SD, read-out: HCA IC50; for inhibition at 10 µM: read-out: Effect HCA at 10 µM [% inhibition]
Procedure: (§1) The plate was washed 3 times with starvation medium, e.g. fibroblast basal medium (FBM, Lonza) supplemented with 0.1% faf BSA, 100 units / ml of penicillin and 100 μg / ml of streptomycin and 250 ng / ml amphotericin B, and then starved for 24 h in 30 μl volume. NHLF were differentiated into myofibroblasts by incubation with 5 ng / ml TGF–β1 (from a stock of 20 μg / ml in 4 mM HCl, 1 mg / ml BSA) for 48 h. Compounds were prepared as 5x stocks in starvation medium and added to the starved cells to a final 1x concentration concomitant with TGF–β1 addition. The final DMSO concentration in the assay was 0.6% in all wells. 48 h after TGF–β1 addition, the medium was removed and the cells were fixed in methanol for 10 min at room temperature (RT). After fixation, cells were washed 3 times with 1 x PBS and either stored at 4°C for up to 3 days or further processed. […] Images were acquired on the Opera Phenix confocal high–content screening system (Perkin Elmer) using the 20–x water immersion lens.
(§2) DAPI stained nuclei were used to identify cells. α–SMA and FN regions were then identified and mapped to the corresponding nuclei for background correction, cell segmentation and cell feature computation to identify, classify and weigh over 400 features per cell. The computed features (S1 Table) comprise, but are not limited to, granularity, intensity, texture, area, shape and solidity of a cell in both α–SMA–and FN–expressing regions. The 0% compound effect (5 ng / ml TGF–β1) and the 100% compound effect (0 ng / ml TGF–β1) controls, were used to train and validate a support vector machine (SVM), a supervised learning model with associated learning algorithm that, once successfully validated, was applied to every cell in every well of the assayed microtiter plate. The SVM allowed autonomous weighting and classification of the characteristics and thus enabled the classifier to decide which characteristics were most relevant for the differentiation of the cell types. […] The classification of each cell was aggregated to a cell type ratio per well, represented as the computed percentage effect value per well indicative of the degree of myofibroblast differentiation. E.g. 100% equals complete myofibroblast differentiation, 0% indicates a pure fibroblast population without any signs of differentiation.

[3] = system: normal human lung fibroblasts (NHLF); assay: Nuclear count in the HCA, standard assay; format: cell-based; settings: standard HCA, NHLF, 5 ng/ml TGF–β1, 48 h, read-out: Nuclear count IC50
Procedure: as §1, §2

[4] = Homo sapiens, Fibroblast, 10 µM compound, 5 ng/ml TGF–β1, 48 h

## Cc1cc(C#N)cc(C)c1Oc1nc(Nc2ccc(C#N)cc2)nc(N)c1Br [Etravirine (TMC125), Etravirine]
[1]; 10 µM compound
  Effect on viability at 10 µM [% reduction]: 29 % reduction
[2]; Homo sapiens, Fibroblast, 48 h
  IC50: 3.9 µM
[2]; [4]
  inhibition at 10 µM: 100%
[3]; Homo sapiens, Fibroblast, 48 h
  IC50: > 25 µM

## Clc1cc(Cl)c(OCC#CI)cc1Cl [Haloprogin]
[1]; 10 µM compound
  Effect on viability at 10 µM [% reduction]: 61 % reduction
[2]; Homo sapiens, Fibroblast, 48 h
  IC50: 1.3 µM
[2]; [4]
  inhibition at 10 µM: 77%
[3]; Homo sapiens, Fibroblast, 48 h
  IC50: 4.5 µM

## Cc1cc(N)c2ccccc2[n+]1CCCCCCCCCC[n+]1c(C)cc(N)c2ccccc21 [Dequalinium dichloride]
[1]; human, 10 µM
  Effect on viability at 10 µM [% reduction]: 39 % reduction
[2]; Homo sapiens, Fibroblast, 48 h
  IC50: 5.8 µM
[2]; [4]
  inhibition at 10 µM: 67%
[3]; Homo sapiens, Fibroblast, 48 h
  IC50: > 25 µM

## COCCOC(=O)C1=C(C)NC(C)=C(C(=O)OC/C=C/c2ccccc2)C1c1cccc([N+](=O)[O-])c1 (stereo not drawn) [Cilnidipine]
[1]; 10 µM compound
  Effect on viability at 10 µM [% reduction]: 15 % reduction
[2]; Homo sapiens, Fibroblast, 48 h
  IC50: 8.04 µM
[2]; [4]
  inhibition at 10 µM: 92%
[3]; Homo sapiens, Fibroblast, 48 h
  IC50: > 25 µM

## COc1cccc2c1C(=O)c1c(O)c3c(c(O)c1C2=O)C[C@@](O)(C(=O)CO)C[C@@H]3O[C@H]1C[C@H](N)[C@H](O)[C@H](C)O1 [Doxorubicin hydrochloride]
[1]; human, 10 µM
  Effect on viability at 10 µM [% reduction]: 20 % reduction
[2]; Homo sapiens, Fibroblast, 48 h
  IC50: 0.45 µM
[2]; [4]
  inhibition at 10 µM: 64%
[3]; Homo sapiens, Fibroblast, 48 h
  IC50: > 25 µM

## CCCCN(CCCC)CCC(O)c1cc2c(Cl)cc(Cl)cc2c2cc(C(F)(F)F)ccc12 (stereo not drawn) [Halofantrine hydrochloride]
[1]; 10 µM compound
  Effect on viability at 10 µM [% reduction]: 29 % reduction
[2]; Homo sapiens, Fibroblast, 48 h
  IC50: 6.02 µM
[2]; [4]
  inhibition at 10 µM: 101%
[3]; Homo sapiens, Fibroblast, 48 h
  IC50: 5.2 µM

## CC(=O)O[C@H]1C[C@H](O[C@H]2[C@@H](O)C[C@H](O[C@H]3[C@@H](O)C[C@H](O[C@H]4CC[C@@]5(C)[C@H](CC[C@@H]6[C@@H]5C[C@@H](O)[C@]5(C)[C@@H](C7=CC(=O)OC7)CC[C@]65O)C4)O[C@@H]3C)O[C@@H]2C)O[C@H](C)[C@H]1O[C@@H]1O[C@H](CO)[C@@H](O)[C@H](O)[C@H]1O [Lanatoside C]
[1]; human, 10 µM
  Effect on viability at 10 µM [% reduction]: 19 % reduction
[2]; [4]
  inhibition at 10 µM: 100%
[2]; Homo sapiens, Fibroblast
  IC50: 0.035 µM
[3]; Homo sapiens, Fibroblast
  IC50: > 25 µM

## Cc1nc(Nc2ncc(C(=O)Nc3c(C)cccc3Cl)s2)cc(N2CCN(CCO)CC2)n1 [Dasatinib (BMS–354825), Dasatinib]
[1]; human, 10 µM
  Effect on viability at 10 µM [% reduction]: –10 % reduction
[2]; Homo sapiens, Fibroblast, 48 h
  IC50: 1.02 µM
[2]; [4]
  inhibition at 10 µM: 89%
[3]; Homo sapiens, Fibroblast, 48 h
  IC50: > 25 µM

## Nc1ncn(C2OC(CO)C(O)C2O)c(=O)n1 (stereo not drawn) [Azacytidine–5]
[1]
  Effect on viability at 10 µM [% reduction]: –4 % reduction
[2]; 10 µM compound, 5 ng/ml TGF–β1, 48 h
  Effect HCA at 10 µM [% inhibition]: 97 % inhibition
[2]
  IC50: 3.2 µM
[3]
  IC50: > 25 µM
